In ChEMBL document CHEMBL5604062, “ASAP - ZIKV NS2B-NS3 protease fluorescence dose response” (2024):
Where “and” joins values, the source holds several entries; their conditions need not be identical. Equal entries are not always repeated.

What follows are molecules tested against Nonstructural protein 3 (Zika virus, UniProt A0A024AXB9) (assay: Functional biochemical assay to identify treatments for viral infectious disease that targets Zika NS2B-NS3 protease. Utilizing a direct enzyme activity measurement method, reading the fluorescence intensity is used to characterize the relative potency of inhibitors as IC50.).
Design: species or system PRVABC59

Nonstructural protein 3, sequence (A0A024AXB9 whole entry): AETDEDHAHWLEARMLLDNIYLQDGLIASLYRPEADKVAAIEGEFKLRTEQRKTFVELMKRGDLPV

IC50 | Compound
> 99.5 µM | Cc1ncsc1C(=O)N[C@H](C(=O)Nc1cccc(CN)c1)c1ccc(OCc2ccccc2)cc1
> 99.5 µM | CCN1CCN(c2ccc(NS(=O)(=O)c3ccc(Cl)cc3C(=O)O)cc2)CC1
28.8 µM | COc1ccc(F)cc1-c1ccc(S(=O)(=O)Nc2ccc(Cl)cc2C(=O)O)cc1
> 99.5 µM | CCn1c(=O)c(N2C[C@H]3CCC[C@H]2C3)nc2ccccc21
> 99.5 µM | NCc1cccc(NC(=O)[C@H](NC(=O)C2CCC2)c2ccc(OCc3ccccc3)cc2)c1
> 99.5 µM | N[C@]12CCC[C@](C(=O)NCc3ccc4c(c3)CCNCC4)(CC1)C2
88.8 µM | O=C(O)c1cc(F)c(F)c(F)c1NS(=O)(=O)c1ccc(Oc2ccccc2Cl)cc1
> 99.5 µM | CCC(=O)N1CCc2ccc(NS(=O)(=O)c3ccc(Cl)cc3C(=O)O)cc21
20.7 µM and 18.8 µM and 15.9 µM and 15.5 µM | NCc1cccc(NC(=O)C[C@H](NC(=O)OCc2ccccc2)c2ccc(Cl)c(Br)c2)c1
> 99.5 µM | O=C(Cn1ccnc(N2CC[C@H](CO)C2)c1=O)NCc1nccs1
64.4 µM | NCc1cccc(NC(=O)[C@H](NC(=O)OCc2ccccc2)c2ccc(Br)c(F)c2)c1
> 99.5 µM | CCn1ccnc(N2C[C@H](c3c[nH]c4ccccc34)[C@H](N3C(=O)c4ccccc4C3=O)C2)c1=O
34.4 µM | CC(C)Oc1ccccc1C(=O)N[C@H](C(=O)Nc1cccc(CN)c1)c1ccc(OCc2ccccc2)cc1
72 µM | NCc1cccc(NC(=O)[C@H](NC(=O)OCc2ccccc2)c2ccc(Br)cc2F)c1
51.3 µM | NCc1cccc(CNC(=O)c2cc(Cl)cc(NC(=O)OCc3ccccc3)c2)c1
84.1 µM | NCc1cccc(NC(=O)[C@H](NC(=O)OCc2ccccc2)c2cccc(-c3ccc(S(N)(=O)=O)cc3)c2)c1
> 99.5 µM | Cn1cc(-c2cccc([C@H](NC(=O)OCc3ccccc3)C(=O)Nc3cccc(CN)c3)c2)cn1
> 99.5 µM | COCc1cc(Cl)ccc1NS(=O)(=O)c1ccc(Oc2ccccc2Cl)cc1
> 99.5 µM | CCN(C(=O)Cn1ccnc(N2CC[C@H](CO)C2)c1=O)C(C)C
95.2 µM | NCc1cccc(NC(=O)[C@H](NC(=O)c2ccns2)c2ccc(OCc3ccccc3)cc2)c1
> 99.5 µM | CCn1c(=O)c(N2CC[C@H](c3nccn3C)C2)nc2ccccc21
> 99.5 µM | Cc1nccn1-c1ccc(NS(=O)(=O)c2ccc(Cl)cc2C(=O)O)cc1F
> 99.5 µM | O=C(O)c1cc(Cl)ccc1S(=O)(=O)Nc1ccc(N2CCCS2(=O)=O)cc1
> 99.5 µM | Cc1cc(N2CCC(NS(=O)(=O)c3ccc(Cl)cc3C(=O)O)CC2)nc(C)n1

IC50 | Compound
14.7 µM and 13.8 µM | CCOc1cccc(-c2ccc(S(=O)(=O)Nc3ccc(Cl)cc3C(=O)O)cc2)c1
71.4 µM | NCc1cccc(NC(=O)C[C@H](NC(=O)OCc2ccccc2)c2ccc(Cl)c(F)c2)c1
58.5 µM | NCC1(NC(=O)[C@H](NC(=O)OCc2ccccc2)c2ccc(OCc3ccccc3)cc2)CCCCC1
> 99.5 µM | Cn1ccnc1C(=O)N[C@H](C(=O)Nc1cccc(CN)c1)c1ccc(OCc2ccccc2)cc1
> 99.5 µM | CCn1c(=O)c(N2C[C@H]3C[C@H]2CS(=O)(=O)C3)nc2ccccc21
77.5 µM | CS(=O)(=O)c1ccc(-c2ccc(S(=O)(=O)Nc3ccc(Cl)cc3C(=O)O)cc2)cc1
> 99.5 µM | NCc1cccc(NC(=O)[C@H](NC(=O)OCc2ccccc2)c2cccc(-c3cncc(F)c3)c2)c1
> 99.5 µM | CCn1c(=O)c(N2CC[C@H]3[C@H]2[C@H]3C(F)(F)F)nc2ccccc21
70.5 µM | CS(=O)(=O)c1ccc(-c2cccc([C@H](NC(=O)OCc3ccccc3)C(=O)Nc3cccc(CN)c3)c2)cc1
> 99.5 µM | CCC(C)(C)C(=O)N[C@H](C(=O)Nc1cccc(CN)c1)c1ccc(OCc2ccccc2)cc1
> 99.5 µM | CCn1c(=O)c(N2CC[C@H](N3CCCC3=O)C2)nc2ccccc21
> 99.5 µM | CCn1c(=O)c(N2CC[C@H](c3cnccn3)C2)nc2ccccc21
> 99.5 µM | O=C(O)c1cc(Cl)ccc1NS(=O)(=O)c1ccc(-c2cccnc2)cc1
> 99.5 µM | CCn1c(=O)c(N2CC[C@]3(CCNC3=O)C2)nc2ccccc21
> 99.5 µM | O=C(O)c1cc(Cl)ccc1S(=O)(=O)NC1CCC(N2CCCCC2=O)CC1 (configuration not stated)
60 µM | Cc1ccc(C(=O)N[C@H](C(=O)Nc2cccc(CN)c2)c2ccc(OCc3ccccc3)cc2)s1
60.8 µM | CS(=O)(=O)c1cncc(-c2cccc([C@H](NC(=O)OCc3ccccc3)C(=O)Nc3cccc(CN)c3)c2)c1
> 99.5 µM | NCc1cccc(NC(=O)[C@]2(NC(=O)OCc3ccccc3)COc3cc(Br)ccc32)c1
> 99.5 µM | CCN1C[C@H]2C[C@@H]1CN2c1nc2ccccc2n(CC)c1=O
> 99.5 µM | Cc1cc(OCc2ccccc2)ccc1NS(=O)(=O)c1ccc(Cl)cc1C(=O)O
80 µM | N#Cc1ccccc1-c1ccc(S(=O)(=O)Nc2ccc(Cl)cc2C(=O)O)cc1
> 99.5 µM | CCn1c(=O)c(N2CCC[C@H]2C(=O)NC2CC2)nc2ccccc21
> 99.5 µM | CCn1c(=O)c(N2C[C@H]3COC[C@@]3(C)C2)nc2ccccc21
93.3 µM | NCc1cccc(NC(=O)[C@H](NC(=O)OCc2ccccc2)c2cccc(C3=CCCOC3)c2)c1

IC50 | Compound
> 99.5 µM | CC(C)[C@@H]1[C@H](C(=O)Nc2cccc(CN)c2)CCN1C(=O)OCc1ccccc1
22.3 µM and 20 µM | NCc1cccc(NC(=O)[C@H](NC(=O)C2CCCCC2)c2ccc(OCc3ccccc3)cc2)c1
> 99.5 µM | Cn1ncc2cc(C(=O)N3CCC(NC(=O)[C@]4(C)CCC[C@H]4O)CC3)cc(O)c21
> 99.5 µM | CCn1c(=O)c(N2CC[C@H](c3ccccc3)C2)nc2ccccc21
23.7 µM and 23.1 µM | CCOC(=O)c1cc(C(=O)N[C@H](C(=O)Nc2cccc(CN)c2)c2ccc(OCc3ccccc3)cc2)n(C)n1
61 µM | Cc1occ(C(F)(F)F)c1C(=O)N[C@H](C(=O)Nc1cccc(CN)c1)c1ccc(OCc2ccccc2)cc1
> 99.5 µM | NCc1cccc(NC(=O)[C@H](NC(=O)[C@H]2CCOC2)c2ccc(OCc3ccccc3)cc2)c1
> 99.5 µM | COc1ccc(NS(=O)(=O)c2ccc(Cl)cc2C(=O)O)cc1OC1CCCC1
> 99.5 µM | O=C(O)c1cc(Cl)ccc1NS(=O)(=O)c1ccc(-c2cn[nH]c2)cc1
17.2 µM | C[C@]1(C(=O)N[C@H](C(=O)Nc2cccc(CN)c2)c2ccc(OCc3ccccc3)cc2)COc2ccccc2O1
> 99.5 µM | CCn1c(=O)c(N2CC[C@]3(CNC(=O)O3)C2)nc2ccccc21
> 99.5 µM | CCn1c(=O)c(N2C[C@H]3CCS(=O)(=O)[C@H]3C2)nc2ccccc21
> 99.5 µM | NCc1cccc(NC(=O)[C@H](NC(=O)c2ccncc2)c2ccc(OCc3ccccc3)cc2)c1
> 99.5 µM | O=C(O)c1cc(Cl)ccc1S(=O)(=O)Nc1ccc(-c2cccc(F)c2)cc1
> 99.5 µM | CC(=O)Nc1cccc(-c2ccc(S(=O)(=O)Nc3ccc(Cl)cc3C(=O)O)cc2)c1
> 99.5 µM | NCc1cccc(N(C(=O)CNC(=O)OCc2ccccc2)c2ccc(OCc3ccccc3)cc2)c1
> 99.5 µM | NCc1cccc(NC(=O)[C@H](NC(=O)OCc2ccccc2)c2ccc(CO)cc2)c1
> 99.5 µM | Cc1ccc([C@H]2[C@H](C)CN2C(=O)c2ccc(C(F)(F)CN)cc2)cc1
> 99.5 µM | O=C(O)c1cc(Cl)ccc1S(=O)(=O)NC1CCN(Cc2ccccn2)CC1
> 99.5 µM | O=C(O)c1ccc(F)c(F)c1NS(=O)(=O)c1ccc(Oc2ccccc2Cl)cc1
> 99.5 µM | CCn1c(=O)c(N2C[C@H](C)C[C@H]2c2ccccc2)nc2ccccc21
> 99.5 µM | CCn1c(=O)c(N2C[C@@H]3C[C@]3(CO)C2)nc2ccccc21
> 99.5 µM | CCn1c(=O)c(N2C[C@H](O)C3(CC3)C2)nc2ccccc21
> 99.5 µM | CCn1c(=O)c(N2C[C@]3(CO)C[C@H]2CO3)nc2ccccc21

IC50 | Compound
> 99.5 µM | CCc1n[nH]cc1-c1cccc([C@H](NC(=O)OCc2ccccc2)C(=O)Nc2cccc(CN)c2)c1
> 99.5 µM | CCn1c(=O)c(N2C[C@@H]3[C@H](C2)[C@H]2CC[C@@H]3O2)nc2ccccc21
37.6 µM | COc1ccccc1-c1ccc(S(=O)(=O)Nc2ccc(Cl)cc2C(=O)O)cc1
> 99.5 µM | NCc1cccc(NC(=O)[C@H]2[C@H]3CCC[C@H]3[C@@H]2NC(=O)OCc2ccccc2)c1
> 99.5 µM | CC1(NS(=O)(=O)c2ccc(Cl)cc2C(=O)O)CCN(c2ccccc2)CC1
> 99.5 µM | CCOCC(=O)N[C@H](C(=O)Nc1cccc(CN)c1)c1ccc(OCc2ccccc2)cc1
> 99.5 µM | CCn1c(=O)c(N2CCC[C@@H]2Cn2cncn2)nc2ccccc21
> 99.5 µM | CCn1c(=O)c(N2CC[C@H](c3nncs3)C2)nc2ccccc21
> 99.5 µM | NC[C@H]1C[C@@H](NC(=O)c2cc(Cl)ccc2NS(=O)(=O)c2ccc(Oc3ccccc3Cl)cc2)C1
83.1 µM and 78.1 µM | NCc1cccc(NC(=O)C[C@H](NC(=O)OCc2ccccc2)C2CCCCC2)c1
> 99.5 µM | NCc1cccc(NC(=O)[C@H](NC(=O)Cn2cccn2)c2ccc(OCc3ccccc3)cc2)c1
> 99.5 µM | O=C(O)c1cc(Cl)ccc1S(=O)(=O)N[C@H]1CCN(Cc2ccccc2)C(=O)C1
> 99.5 µM | O=C(O)c1cc(Cl)ccc1S(=O)(=O)N[C@H]1CC[C@H]2CN(Cc3ccccc3)C[C@H]2C1
> 99.5 µM | C[C@]1(C(=O)N[C@H](C(=O)Nc2cccc(CN)c2)c2ccc(OCc3ccccc3)cc2)CCCO1
> 99.5 µM | CCn1c(=O)c(N2CC3(COC3)[C@](F)(CO)C2)nc2ccccc21
> 99.5 µM | NCc1cccc(NC(=O)c2cc(Cl)ccc2NS(=O)(=O)c2ccc(Oc3ccccc3Cl)cc2)c1
> 99.5 µM | Cc1cc(-c2cccc([C@H](NC(=O)OCc3ccccc3)C(=O)Nc3cccc(CN)c3)c2)[nH]n1
> 99.5 µM | CCn1c(=O)c(N2C[C@H]3C[C@H]2C(F)(F)C3)nc2ccccc21
> 99.5 µM | CCn1c(=O)c(N2CC[C@]3(CCSC3)C2)nc2ccccc21
> 99.5 µM | NS(=O)(=O)c1cccc(-c2ccc(S(=O)(=O)Nc3ccc(Cl)cc3C(=O)O)cc2)c1
> 99.5 µM | CCn1c(=O)c(N2CCC[C@@H]2Cc2cccs2)nc2ccccc21
48.7 µM | NCc1cccc(NC(=O)C[C@H](NC(=O)OCc2ccccc2)c2ccc(Br)cc2)c1
> 99.5 µM | CC(=O)N1CCN([C@H]2CC[C@H](NS(=O)(=O)c3ccc(Cl)cc3C(=O)O)CC2)CC1
> 99.5 µM | CCC1CN(C(=O)c2cc(Cl)ccc2NS(=O)(=O)c2ccc(Oc3ccccc3Cl)cc2)C1

Compound | IC50
Cn1cnc2c1CN(Cc1ccc3c(c1)CCNCC3)CC2 | > 99.5 µM
